Results: patent US4122034A, “Antimicrobial compositions” (Schering Corporation, priority 1975, dated 1978)
≈ marks a conversion by molar mass, not a printed value.

Assays:
Clostridium novyi = assay: In vitro activity against anaerobes in fluid Thioglycollate medium (Table II); assay type: cell-based
Protocol: (§1) All the tests were carried out and (when necessary) scored under standard conditions. "MIC" means "minimum inhibitory concentration."
(§2) In vitro activity of 2-aminoalkyl-3-phenylindoles of the formula I
(§3) against anaerobes in fluid Thioglycollate medium

Bacteroides corrodens = assay: as above; assay type: cell-based; conditions: Eikenella corrodens
Protocol: as §1, §2, §3

Clostridium histolyticum = assay: as above; assay type: cell-based; conditions: Hathewaya histolytica
Protocol: as §1, §2, §3

Bacteroides fragilis = assay: as above; assay type: cell-based
Protocol: as §1, §2, §3

Eubacterium lentum = assay: as above; assay type: cell-based; conditions: Eggerthella lenta
Protocol: as §1, §2, §3

Peptostreptococcus = assay: as above; assay type: cell-based
Protocol: as §1, §2, §3

[1] = test system: Bacteroides melaninogenicus; assay: as above; assay type: cell-based
Protocol: as §1, §2, §3

Clostridium septicum = assay: as above; assay type: cell-based
Protocol: as §1, §2, §3

[2] = test system: Trichophyton mentagrophytes; assay: In vitro antifungal activity, dilutions in Sabouraud's Dextrose Broth (Table IV); assay type: cell-based; conditions: 96 h
Outline: (§4)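 Each entry gives a minimum inhibitory concentration. It comes from broth dilution testing done and scored by standard procedure.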

Trichophyton gallinae = assay: as above; assay type: cell-based; conditions: after 96 hours
Outline: as §4

Trichophyton ferrugineum = assay: as above; assay type: cell-based; conditions: Microsporum ferrugineum; after 96 hours
Outline: as §4

[3] = test system: Trichophyton schoenleinii; assay: as above; assay type: cell-based; conditions: 96 h
Outline: as §4

Aspergillus sp. No. 3 = assay: as above; assay type: cell-based; conditions: after 96 hours
Outline: as §4

Trichophyton tonsurans = assay: as above; assay type: cell-based; conditions: after 96 hours
Outline: as §4

[4] = Acute toxicity in mice (Table V); conditions: mouse, in vivo
Protocol: as §1
Acute Toxicity of 2-aminoalkyl-3-phenylindoles of the formula I

[5] = strain not given, after 96 hours

SMILES | MIC (Clostridium novyi; 48 hrs) [µg/mL] | MIC (Clostridium novyi; 72 hrs) [µg/mL] | MIC (Bacteroides corrodens; 48 hrs) [µg/mL] | MIC (Bacteroides corrodens; 72 hrs) [µg/mL] | MIC (Clostridium histolyticum; 48 hrs) [µg/mL] | MIC (Clostridium histolyticum; 72 hrs) [µg/mL] | MIC (Bacteroides fragilis; 48 hrs) [µg/mL] | MIC (Bacteroides fragilis; 72 hrs) [µg/mL] | MIC (Eubacterium lentum; 48 hrs) [µg/mL] | MIC (Eubacterium lentum; 72 hrs) [µg/mL] | MIC (Peptostreptococcus; 48 hrs) [µg/mL] | MIC (Peptostreptococcus; 72 hrs) [µg/mL] | MIC ([1]; 48 hrs) [µg/mL] | MIC ([1]; 72 hrs) [µg/mL] | MIC (Clostridium septicum; 48 hrs) [µg/mL] | MIC (Clostridium septicum; 72 hrs) [µg/mL] | MIC ([2]; strain A, after 96 hours) [µg/mL] | MIC ([2]; strain B, after 96 hours) [µg/mL] | MIC ([2]; strain C, after 96 hours) [µg/mL] | MIC ([2]; strain H377, after 96 hours) [µg/mL] | further results
NCc1[nH]c2ccc(Cl)cc2c1-c1ccccc1F [A, 2-Aminomethyl-5-chloro-3-(2-fluorophenyl)indole] | 7.5 (≈ 27.3 µM) | 7.5 (≈ 27.3 µM) | 7.5 (≈ 27.3 µM) | 7.5 (≈ 27.3 µM) | 7.5 (≈ 27.3 µM) | 7.5 (≈ 27.3 µM) | 7.5 (≈ 27.3 µM) | 7.5 (≈ 27.3 µM) | 17.5 (≈ 63.7 µM) | 17.5 (≈ 63.7 µM) | 3 (≈ 10.9 µM) | 3 (≈ 10.9 µM) | 7.5 (≈ 27.3 µM) | 7.5 (≈ 27.3 µM) | 7.5 (≈ 27.3 µM) | 7.5 (≈ 27.3 µM) | 7.5 (≈ 27.3 µM) | 7.5 (≈ 27.3 µM) | 7.5 (≈ 27.3 µM) | 7.5 (≈ 27.3 µM) | MIC ([2]; strain Young, after 96 hours): 7.5 µg/mL (≈ 27.3 µM); MIC (Trichophyton gallinae): 7.5 µg/mL (≈ 27.3 µM); MIC (Trichophyton ferrugineum): 7.5 µg/mL (≈ 27.3 µM); MIC ([3]; strain 2, after 96 hours): 3 µg/mL (≈ 10.9 µM); MIC [3, 5]: 17.5 µg/mL (≈ 63.7 µM); MIC (Aspergillus sp. No. 3): 17.5 µg/mL (≈ 63.7 µM); MIC (Trichophyton tonsurans): 17.5 µg/mL (≈ 63.7 µM); LD50 ([4]; Oral): > 1000 mg/kg; LD50 ([4]; ip, I.P.): 250 mg/kg; LD50 ([4]; sc, S.C.): 850 mg/kg
NCc1[nH]c2ccc(Cl)cc2c1-c1c(F)cccc1F [B, 2-aminomethyl-5-chloro-3-(2,6-difluorophenyl)indole] | 7.5 (≈ 25.6 µM) | 7.5 (≈ 25.6 µM) | 7.5 (≈ 25.6 µM) | 7.5 (≈ 25.6 µM) | 7.5 (≈ 25.6 µM) | 7.5 (≈ 25.6 µM) | 3 (≈ 10.2 µM) | 3 (≈ 10.2 µM) | 17.5 (≈ 59.8 µM) | 17.5 (≈ 59.8 µM) | 3 (≈ 10.2 µM) | 3 (≈ 10.2 µM) | 7.5 (≈ 25.6 µM) | 17.5 (≈ 59.8 µM) | 3 (≈ 10.2 µM) | 3 (≈ 10.2 µM) | 7.5 (≈ 25.6 µM) | 7.5 (≈ 25.6 µM) | 7.5 (≈ 25.6 µM) | 17.5 (≈ 59.8 µM) | MIC ([2]; strain Young, after 96 hours): 7.5 µg/mL (≈ 25.6 µM); MIC (Trichophyton gallinae): 7.5 µg/mL (≈ 25.6 µM); MIC (Trichophyton ferrugineum): 37.5 µg/mL (≈ 128 µM); MIC ([3]; strain 2, after 96 hours): 7.5 µg/mL (≈ 25.6 µM); MIC [3, 5]: 17.5 µg/mL (≈ 59.8 µM); MIC (Aspergillus sp. No. 3): 37.5 µg/mL (≈ 128 µM); MIC (Trichophyton tonsurans): 200 µg/mL (≈ 683 µM); LD50 ([4]; Oral): ~1000 mg/kg; LD50 ([4]; ip, I.P.): 225 mg/kg; LD50 ([4]; sc, S.C.): 900 mg/kg
NCc1[nH]c2ccc(Cl)cc2c1-c1ccccc1 [C, 2-(1-aminomethyl)-5-chloro-3-phenylindole] | 3 (≈ 11.7 µM) | 3 (≈ 11.7 µM) | 3 (≈ 11.7 µM) | 3 (≈ 11.7 µM) | 3 (≈ 11.7 µM) | 3 (≈ 11.7 µM) | 3 (≈ 11.7 µM) | 3 (≈ 11.7 µM) | 7.5 (≈ 29.2 µM) | 7.5 (≈ 29.2 µM) | 3 (≈ 11.7 µM) | 3 (≈ 11.7 µM) | 7.5 (≈ 29.2 µM) | 7.5 (≈ 29.2 µM) | 3 (≈ 11.7 µM) | 3 (≈ 11.7 µM) | 7.5 (≈ 29.2 µM) | 7.5 (≈ 29.2 µM) | 3 (≈ 11.7 µM) | 17.5 (≈ 68.2 µM) | MIC ([2]; strain Young, after 96 hours): 7.5 µg/mL (≈ 29.2 µM); MIC (Trichophyton gallinae): 37.5 µg/mL (≈ 146 µM); MIC (Trichophyton ferrugineum): 17.5 µg/mL (≈ 68.2 µM); MIC ([3]; strain 2, after 96 hours): 3 µg/mL (≈ 11.7 µM); MIC [3, 5]: 17.5 µg/mL (≈ 68.2 µM); MIC (Aspergillus sp. No. 3): 17.5 µg/mL (≈ 68.2 µM); MIC (Trichophyton tonsurans): 7.5 µg/mL (≈ 29.2 µM); LD50 ([4]; Oral): > 1000 mg/kg; LD50 ([4]; ip, I.P.): 100 mg/kg; LD50 ([4]; sc, S.C.): 600 mg/kg
NCc1[nH]c2cc(Br)c(Cl)cc2c1-c1ccccc1 [D, 2-aminomethyl-6-bromo-5-chloro-3-phenylindole] | 0.75 (≈ 2.23 µM) | 0.75 (≈ 2.23 µM) | 0.75 (≈ 2.23 µM) | 0.75 (≈ 2.23 µM) | 0.3 (≈ 0.894 µM) | 0.3 (≈ 0.894 µM) | 0.75 (≈ 2.23 µM) | 0.75 (≈ 2.23 µM) | 0.75 (≈ 2.23 µM) | 0.75 (≈ 2.23 µM) | 0.3 (≈ 0.894 µM) | 0.3 (≈ 0.894 µM) | 3 (≈ 8.94 µM) | 3 (≈ 8.94 µM) | 0.75 (≈ 2.23 µM) | 0.75 (≈ 2.23 µM) | 7.5 (≈ 22.3 µM) | 3 (≈ 8.94 µM) | 3 (≈ 8.94 µM) | 7.5 (≈ 22.3 µM) | MIC ([2]; strain Young, after 96 hours): 7.5 µg/mL (≈ 22.3 µM); MIC (Trichophyton gallinae): 75 µg/mL (≈ 223 µM); MIC (Trichophyton ferrugineum): 17.5 µg/mL (≈ 52.1 µM); MIC ([3]; strain 2, after 96 hours): 7.5 µg/mL (≈ 22.3 µM); MIC [3, 5]: 7.5 µg/mL (≈ 22.3 µM); MIC (Aspergillus sp. No. 3): 17.5 µg/mL (≈ 52.1 µM); MIC (Trichophyton tonsurans): 17.5 µg/mL (≈ 52.1 µM); LD50 ([4]; Oral): ~950 mg/kg; LD50 ([4]; ip, I.P.): 175 mg/kg; LD50 ([4]; sc, S.C.): 750 mg/kg
NCc1[nH]c2ccc(Cl)cc2c1-c1ccc(Cl)cc1Cl [E] | 0.75 (≈ 2.3 µM) | 0.75 (≈ 2.3 µM) | 0.75 (≈ 2.3 µM) | 3 (≈ 9.21 µM) | 0.3 (≈ 0.921 µM) | 0.3 (≈ 0.921 µM) | 0.75 (≈ 2.3 µM) | 0.75 (≈ 2.3 µM) | 3 (≈ 9.21 µM) | 3 (≈ 9.21 µM) | 0.75 (≈ 2.3 µM) | 0.75 (≈ 2.3 µM) | 3 (≈ 9.21 µM) | 3 (≈ 9.21 µM) | 0.75 (≈ 2.3 µM) | 0.75 (≈ 2.3 µM) | 3 (≈ 9.21 µM) | 17.5 (≈ 53.7 µM) | 17.5 (≈ 53.7 µM) | 7.5 (≈ 23 µM) | MIC ([2]; strain Young, after 96 hours): 3 µg/mL (≈ 9.21 µM); MIC (Trichophyton gallinae): 17.5 µg/mL (≈ 53.7 µM); MIC (Trichophyton ferrugineum): 7.5 µg/mL (≈ 23 µM); MIC ([3]; strain 2, after 96 hours): 3 µg/mL (≈ 9.21 µM); MIC [3, 5]: 3 µg/mL (≈ 9.21 µM); MIC (Aspergillus sp. No. 3): 17.5 µg/mL (≈ 53.7 µM); MIC (Trichophyton tonsurans): 7.5 µg/mL (≈ 23 µM); LD50 ([4]; Oral): ~700 mg/kg; LD50 ([4]; ip, I.P.): 85 mg/kg; LD50 ([4]; sc, S.C.): 540 mg/kg
